Measurements published in publication PMC9605374 (Marine Drugs, 2022).
pIC50: −log10 of the molar value.

What was measured:
[1] = system: serine-/threonine kinases (JNK1/2, p38) in 22Rv1 cells; assay: Kinome profiling of serine/threonine kinases (PamGene), upstream kinase analysis; format: cell-based, human; settings: 22Rv1, 1 µM and 10 µM, 2 h
Source text: To further investigate the mechanism of anticancer action of NB, we examined the effects of the compound on serine-/threonine protein kinases. Protein kinases modify target molecules (proteins) via phosphorylation, thus, altering their activity. A subgroup of these kinases—serine-/threonine kinases (STK)—play a key role in various essential processes related to cell death and cell survival. Consequently, protein kinases, in general, are important target molecules for various anticancer drugs. Specifically, modification of STKs’ activity has been exploited as a mechanism of action. Several clinically approved drugs, such as sunitinib, palbociclib, cobimetinib, and axitinib, utilize this mechanism to execute their therapeutic action. Thus, we performed functional kinomics using the microarray-based PamGene technology. This method allows a systematic examination of the changes in STK activity (http://www.pamgene.de, accessed on 22 January 2022, Figure 5A–D). We used two different concentrations, specifically, 1 µM and 10 µM, in order to cover different biological effects, which may take place at the different drug doses (Figure 5A). […]
Figure 5 Kinome profiling of serine/threonine kinases (STKs). 22Rv1 cells were incubated with NB for 2 h; the proteins were extracted and STK were analyzed using functional kinome profiling. […]

[2] = system: noncancer cells; assay: MTT assay, mean IC50 in noncancer cell panel; format: cell-based; settings: Homo sapiens, mean over PNT2, RWPE-1, HEK293, MRC-9, 48 h
Source text: To examine the anticancer potential and selectivity of NB, we used a panel of six human prostate cancer cell lines, harboring different levels of treatment resistance to representatively reflect the heterogeneity of the disease. […] Additionally, four human noncancer cells lines were utilized in order to determine the selectivity of NB towards prostate cancer cells, i.e., prostate noncancer PNT2 and RWPE-1 cells, human embryonic kidney HEK 293T cells, and human fibroblasts MRC-9. The different cell lines were treated with NB and the cell viability was examined using MTT assay (Figure 1). The mean IC50 of NB and docetaxel (used as a reference substance) in noncancerous cell lines was divided by the mean IC50 in the prostate cancer cell lines to determine the selectivity index (SI).
The MTT assay was used to monitor the effect of the drugs on cell viability in terms of metabolic activity, as previously reported. First, preincubation of the cells in 96-well plates (6 × 10^3 cells/well in 100 μL/well) was performed overnight in the correspondent culture medium. Next, the medium was exchanged for fresh medium containing the investigated compounds or a vehicle (100 μL/well). […] Finally, 50 μL/well of DMSO were added to solve the formed formazan crystals produced by the metabolic active cells and Infinite F200PRO reader (TECAN, Männedorf, Switzerland) was used to measure the cell viability. […]

## COc1ccc(C2SSC34CC5(O)C(Cl)C=CC(O)C5ON3C(=O)C2N(C)C4=O)c(O)c1OC (centres unmarked) [NB, N-methylpretrichodermamide B]
[1]
  upstream kinase analysis, JNK1/2 and p38 kinases: very likely upregulated
[2]
  pIC50: 4.81
